# Reference: patent US11220500B2, “Crystalline form of Valbenazine dibesylate” (Apotex Inc., priority 2018, dated 2022)
# Where a name gives a salt, the structure may show the parent alone. Read-outs that look alike come from different tables or passages of the source.
# Assays:
# [1] = 24 h
# Protocol: (§1) The solubility of Valbenazine free base, Valbenazine ditosylate and Valbenazine dibesylate were measured in buffer solutions (pH 1.2 to 6.8) in a temperature-controlled water bath at 37° C. with stirring using magnetic stir bars at 325 rpm (rotations per minute). Each Valbenazine sample was weighed and transferred into a 20 mL vial and then 10 mL of buffer was added. The samples were shaken for 1 minute. If all sample dissolved, more sample was added until a saturated solution was obtained. The samples were then equilibrated at 37° C. with stirring using magnetic stir bars at 325 rpm for 24 hours. After equilibration, samples were filtered through 0.45 μm PVDF filters and further diluted with a methanol/water (60/40 v/v) solution. Samples were analyzed by HPLC against known concentrations of standards. The pH values of the solutions were measured after completion of testing.
# physchem = settings: 37 °C, thermodynamic from solid, Solubility expressed as Valbenazine free base
# Protocol: as §1
# [2] = Form stability by PXRD of uncapped samples in a 27° C./60% RH stability chamber; format: physicochemical
# Protocol: Valbenazine dibesylate Form APO-I can be characterized by a PXRD diffractogram comprising, among other peaks, characteristic peaks, expressed in degrees 2θ (±0.2°), at 6.3°, 9.8° and 15.6°. Preferably, the PXRD diffractogram further comprises at least three peaks, expressed in degrees 2θ (±0.2°), selected from the group consisting of 5.3°, 7.7°, 8.5°, 12.5°, 14.0°, 16.8°, 17.1°, 17.8°, 18.6° and 19.7°. More preferably, the PXRD diffractogram further comprises peaks, expressed in degrees 2θ (±0.2°), at 5.3°, 7.7°, 8.5°, 12.5°, 14.0°, 16.8°, 17.1°, 17.8°, 18.6° and 19.7°.
# Data were acquired on a PANanalytical X'Pert Pro MPD diffractometer with fixed divergence slits and an X'Celerator detector. The diffractometer was configured in Bragg-Brentano geometry; data was collected over a 2θ range of 3° to 40° using CuKα radiation at a power of 40 mA and 45 kV. CuKβ radiation was removed using a divergent beam nickel filter. A step size of 0.017°, and a step time of 40 seconds, was used. Raw data were evaluated using X'Pert High Score Plus. Samples were rotated to reduce preferred orientation effects. Samples were lightly ground prior to analysis.
# [3] = Comparative solubility of Valbenazine forms in buffer solutions (pH 1.2 to 6.8) at 37° C., HPLC; settings: equilibrated 24 hours
# Protocol: as §1
Difference of aqueous solubility from that of Valbenazine ditosylate of the approved drug product [1],Solubility expressed as Valbenazine free base ([1]; pH 1.2),Solubility expressed as Valbenazine free base ([1]; pH 6.8),"solubility at 24 h (physchem; pH 4.5, aqueous buffer)",Form stability ([2]; open exposure to 27° C./60% RH for at least 5 months),"Change in the crystalline form (PXRD) ([2]; uncapped samples, 27° C./60% RH stability chamber, at least 20 weeks)",Solubility expressed as Valbenazine free base ([1]; pH 4.5),"solubility at 24 h (physchem; pH 1.2, simulated gastric fluid)","Solubility expressed as Valbenazine free base ([3]; buffer pH 1.2, 37° C.)","Solubility expressed as Valbenazine free base ([3]; buffer pH 4.5, 37° C.)","Solubility expressed as Valbenazine free base ([3]; buffer pH 6.8, 37° C.)",Molecule
≤ 10 % units,22.4 mg/mL,8.1 mg/mL,18.5 mg/mL,exhibits form stability,no change in the crystalline form,,,,,,"COc1cc2c(cc1OC)[C@H]1C[C@@H](OC(=O)[C@@H](N)C(C)C)[C@H](CC(C)C)CN1CC2 [Dibesylate salt, Valbenazine dibesylate]"
,,1.2 mg/mL,,,,21.6 mg/mL,21.3 mg/mL,,,,"COc1cc2c(cc1OC)[C@H]1C[C@@H](OC(=O)[C@@H](N)C(C)C)[C@H](CC(C)C)CN1CC2 [Free base, (2R,3R,11bR)-1,3,4,6,7,11b-hexahydro-9,10-dimethoxy-3-(2-methylpropyl)-2H-benzo[a]quinolizin-2-yl-L-valine ester]"
,,,,,,,,20.9 mg/mL,17.7 mg/mL,7.6 mg/mL,Valbenazine ditosylate [Ditosylate salt]
